“Also recorded” adds a separate entry of the source.
What was measured:
RAC1 = RAC1 (Homo sapiens, UniProt P63000)
MCF-7 cells = assay: Primary focus formation assay; assay type: cell-based; conditions: MCF-7, 3 weeks of treatment
Description: For primary focus formation assays, MCF-7 cells were plated at a density of 10^5 cells/well of a 6-well plate. Cells were allowed to reach confluency and were maintained on complete growth medium supplemented with indicated concentration of A4.1 (or compound (2)) or vehicle until focus formation occurred. Foci of transformed cells was quantitated after 21 days.
Malignant transformation of cells is typically associated with increased proliferation, loss of contact inhibition, acquisition of anchorage-independent growth potential, and the ability to form foci in culture cells. A focus formation assay was used to test whether (2) affects the clonogenic potential of breast cancer cells MCF-7. After 3 weeks of treatments, the cells's foci were fixed, stained and counted ([…]).

[1] = test system: primary fibroblasts from human breast cancer; assay: Invasion in 3D gel of primary fibroblasts from breast cancer; assay type: cell-based; conditions: 10 μM, after 48 h
Description: (§1) FIG. 4 relates to the inhibition of the Rac-dependent cell functions involved in cancer cells by (2). FIG. 4A: Breast cancer cell line MDA-MB-468 and primary human fibroblast from breast cancer tumors were seeded in 3D-gel containing or not (2). […] FIG. 4B: Effect of (2) on foci assay.
(§2) To confirm this hypothesis, cancer cells invasion was analyzed in 3D gel. The breast cancer cell line MDA-MB-468 or primary fibroblasts from human breast cancer were seeded in gels containing or not (2) (10 μM).

MDA-MB-468 = assay: Cancer cell invasion in 3D gel; assay type: cell-based; conditions: 10 μM, after 48 h
Description: as §1, §2

Rac = Rac activator-induced membrane ruffling (actin reorganization) in 3T3 fibroblasts; assay type: cell-based; conditions: 3T3 cells, compound added 1 h before Rac activation
Excerpt: (§3) FIGS. 1 to 3 relate to the inhibition of the Rac-induced cell functions by compound (2) (or A4.1). […] Ruffles are indicated by arrows (left panel). Percentages of cells with ruffles were quantified (right panel). Results shown are representative of 3 independent experiments. […] Left panel, representative records with arrows indicating the cell location at different times. Right panel, quantification of cell speed in each experimental conditions. Results shown are representative of 2 independent experiments. […] Lower panel, quantification of cell adhesion. Results shown are representative of 3 independent experiments.
(§4) cDNA coding for constitutive active Rac1 (Rac^V12-RFP) were transfected in NIH3T3 with jetPEI (Polyplus transfection) according to the manufacturer's instructions. After treatments, fibroblasts were fixed with 4% paraformaldehyde in PBS, permeabilized in PBS 0.5% Triton X-100, and incubated with 130 μg/mL of FITC-conjugated phalloidin (Sigma) to visualize F-actin. After staining, images were captured by a fluorescence microscope (Nikon). The actin cytoskeleton organization was analyzed to observe Rac1-dependent ruffle formation.

3T3 cells = assay: Unidirectional cell migration (cell speed); assay type: cell-based
Excerpt: Percentages of cells with ruffles were quantified (right panel). Results shown are representative of 3 independent experiments. […] Left panel, representative records with arrows indicating the cell location at different times. Right panel, quantification of cell speed in each experimental conditions. Results shown are representative of 2 independent experiments. […] Lower panel, quantification of cell adhesion. Results shown are representative of 3 independent experiments.
Cells (1000/well) were seeded in a 96 well plate with […] fibronectin stripes (CytooPlates Motility, CYTOO) in medium with 1% SVF and allowed to spread for 4 hours before capturing time-lapse images for 24 hours (image/10 minutes) on a Widefield Leica DMI 6000B drove with Metamorph software. Cells speed was measured with ImageJ software.

Rac^V12 = molecular target: T1, Rac^V12 (Homo sapiens, UniProt P63000, G12V); assay: Ruffle formation and membrane location of constitutive active RFP-Rac^V12 in fibroblasts; assay type: cell-based
T1 construct: expressed in transfected cells; host or cells: NIH3T3
Description: as §4
Rac1 over activity is implicated in various steps of oncogenesis including initiation, progression, invasion, and metastasis. The ability of (2) to inhibit a constitutive active mutant of Rac1, Rac^V12 was evaluated. In control condition, expression of RFP-Rac^V12 in fibroblasts induces changes in actin cytoskeleton leading to ruffles formation (data not shown). This effect is prevented by (2) (10 μM).

[2] = Chronic IP injections: body weight, glycemia, hepatic and renal functions; assay type: in vivo, mice; conditions: 25 mg/kg IP daily during 4 weeks
Description: FIGS. 6 to 8 relate to the effect of chronic IP injections of compound (2) on physiological parameters: body weight, glycemia, hepatic and renal functions.
(§5) To test whether compound (2) would have an acceptable therapeutic index in vivo, the pharmacokinetics of compound (2) were measured by analyzing plasma samples, brain, heart, kidney, liver and lungs from male C57BL6 adult mice after intraperitonal injection (IP) (FIG. 5). In addition, we evaluated the effect of chronic (daily during 4 weeks) IP injections of compound (2) on physiological parameters: body weight, glycemia, hepatic and renal functions (FIGS. 6 to 8).

[3] = Pharmacokinetics after intraperitoneal injection; assay type: in vivo, male C57BL6 adult mice; conditions: male, C57BL6, mouse, plasma; IP route, mice
Description: FIG. 5 relates to the pharmacokinetics of compound (2) by analyzing kidney, brain, liver, heart, plasma samples, and lungs from male C57BL6 adult mice after intraperitonal injection. The curves of this Figure represent the concentration in μg/g over time in minutes.
as §5

[4] = test system: MDA-MB-468 (Luciferase+) cell line; assay: Metastasis in xenograft mouse tumor model; assay type: in vivo, NMRI mice; conditions: 25 mg/kg/d IP during 4 weeks after exeresis of primary tumor
Description: FIG. 9 relates to the in vivo efficiency of compound (2) to inhibit metastasis in a xenograft mouse tumor model using MDA-MB-468 (Luciferase+) cell line in 5-week-old NMRI mice.
The in vivo efficiency of compound (2) to inhibit metastasis was evaluated in a xenograft mouse tumor model using MDA-MB-468 (Luciferase+) cell line in 5-week-old NMRI mice. When the tumor volume reached 1,000 mm^3, exeresis of the primary tumor was done to monitor predominantly metastasis initiation and progression. Compound (2) was administered everyday via intraperitoneal injection (25 mg/kg/d) during 4 weeks. Then, xenografted mice were sacrified and organs were imaged (FIGS. 9A and 9B).

fibroblast = assay: Cell adhesion assay using impedance technology (xCELLigence); assay type: cell-based; conditions: fibroblasts pre-treated with 10 μm
Excerpt: as §3
Cells (10000/well) were seeded in a 96 well plate microtiter xCELLigence assay plate (E-Plate) (ACEA Biosciences Inc.) and placed on the Real-time xCELLigence Cell Analyzer (Roche Applied Science) platform at 37° C. to measure the “cell index” every 5 min for a period of 6 hours. The cell index unit is defined as (Rn−Rb)/15. Rn is the cell electrode impedance of the well when it contains cells. Rb is the background impedance of the well with the media alone.

With COc1ccc(OC)c(NS(=O)(=O)c2ccc(NC(=O)CCCc3ccc(C)cc3)cc2)c1 [(3), N-(4-(N-(2,5-dimethoxyphenyl)sulfamoyl)phenyl)-4-(p-tolyl) Butanamide] as the molecule, how does the IC50 (RAC1) read?
The IC50 was 0.1 nM.

What about the “Relative activity (NSC23766)” value (RAC1; compared with NSC23766) of the same molecule?
Its value is “>”.

With COc1ccc(OC)c(NS(=O)(=O)c2ccc(NC(=O)CCSc3ccc(C)cc3)cc2)c1 [Compound (2), N-(4-(N-(2,5-dimethoxyphenyl)sulfamoyl)phenyl)-3-(p-tolylthio)propanamide] as the molecule, how does the IC50 (MCF-7 cells; Homo sapiens, MCF7, 504 h) read?
Its IC50 is 2.3 nM.

What about the “Focus diameter and focus numbers compared with control cells” value (MCF-7 cells) of the same molecule?
Its value is “smaller focus diameter as well as focus numbers”.

And the “Decrease of cell invasion compared to control” value [1]?
The value was greater than 50%.

And the “Decrease of cell invasion compared to control” value (MDA-MB-468)?
The value was greater than 50%.

What about the “Efficiency of Rac activator to induce ruffle / actin reorganization” value (Rac) of the same molecule?
The value was “strongly decreased”.

And the “Efficiency of Rac activator to induce ruffle / actin reorganization” value (Rac; listed as A4.1)?
Its value is “blocks Rac activator-induced actin reorganization”.

And the “Cell migration (cell speed)” value (3T3 cells)?
Its value is “decreases cell migration; also recorded: higher inhibition”.

And the “Location of Rac^V12 at the plasma membrane” value (Rac^V12)?
The value was “limits the location of Rac^V12 at the plasma membrane”.

And the “Ruffles formation induced by RFP-Rac^V12” value (Rac^V12; 10 μM)?
The value was “prevented”.

And the “Side effects after chronic injection” value [2]?
The value was “no major side effects”.

And the bioavailability [3]?
The bioavailability was 81.5%.

What about the Metastases [4] of the same molecule?
The Metastases was “decreases significantly bone, hepatic, uterine and ovarian metastases”.

And the Cell adhesion (fibroblast)?
Its Cell adhesion is “decreases cell adhesion; also recorded: higher inhibition”.

For CCN(CC)CCCC(C)Nc1nc(C)cc(Nc2ccc3nc(C)cc(N)c3c2)n1 (stereo not shown) [NSC23766, reference compound], which Cell adhesion (fibroblast) is on record?
Its Cell adhesion is “slow down”.

Reference: US11795144B2, “Inhibitors of RAC1 and uses thereof for treating cancers” (INSTITUT NATIONAL DE LA SANTE ET DE LA RECHERCHE MEDICALE …, priority 2017, dated 2023)
